Measured values: PubChem BioAssay (NCI)
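Dose response: 5 concentrations. Exposure: 48 h. Format: 96-well plates. Endpoint: linear interpolation; highest concentration if not reached. TGI: concentration producing complete growth inhibition.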

Experiments:
Experiment in all cases: DTP human tumour cell line panel, 48 h
HCT-15 colon = test system: HCT-15 colon
IGROV1 ovarian = test system: IGROV1 ovarian
K-562 leukemia = test system: K-562 leukemia
NCI-H522 lung = test system: NCI-H522 lung
OVCAR-4 ovarian = test system: OVCAR-4 ovarian
SF-539 CNS = test system: SF-539 CNS
SN12C renal = test system: SN12C renal
SNB-19 CNS = test system: SNB-19 CNS
U251 CNS = test system: U251 CNS

SMILES | TGI (HCT-15 colon) | TGI (IGROV1 ovarian) | TGI (K-562 leukemia) | TGI (NCI-H522 lung) | TGI (OVCAR-4 ovarian) | TGI (SF-539 CNS) | TGI (SN12C renal) | TGI (SNB-19 CNS) | TGI (U251 CNS)
Cc1c(NC(=O)CSC(=S)N2CCN(Cc3ccccc3)CC2)c(=O)n(-c2ccccc2)n1C | > 100 µM | > 100 µM | > 100 µM | > 100 µM | > 100 µM | > 100 µM | > 100 µM | > 100 µM | > 100 µM
CC(C)C(OC(=O)c1ccc(NCc2cc(O)ccc2O)cc1)C(C)C | 1.77 µM | 2.35 µM | 4.12 µM | 0.391 µM | 4.33 µM | 2.47 µM | 11.9 µM | 7.06 µM | 2.85 µM
COC(=O)C(Cc1ccccc1)NP(=O)(O)OCC1OC(n2cc(F)c(=O)[nH]c2=O)CC1O (stereo not drawn) | > 100 µM | > 100 µM | > 100 µM | > 100 µM | > 100 µM | 63.9 µM | > 100 µM | > 100 µM | > 100 µM
N#Cc1ccccc1-c1nc2c3c(c(N)ccc3n1)C(=O)c1ccccc1-2 | > 100 µM | > 100 µM | > 100 µM | > 100 µM | > 100 µM | > 100 µM | > 100 µM | > 100 µM | > 100 µM
CCNC(=O)c1cc(/C=C/c2ccc([N+](=O)[O-])o2)nc2ccccc12 | > 100 µM | > 65.8 µM | > 100 µM | > 49 µM | > 100 µM | > 100 µM | > 100 µM | > 100 µM | > 100 µM
O=C1/C(=N\S(=O)(=O)c2ccccc2)C([n+]2ccc(Cc3ccccc3)cc2)=C([O-])c2ccccc21 | 3.36 µM | 4.92 µM | > 100 µM | 2.11 µM | 3.13 µM | 3.45 µM | 3.12 µM | 3.3 µM | 5.48 µM
CN(C)c1nc2oc(-c3ccccc3)c(-c3ccccc3)c2c2nnnn12 | > 100 µM | > 100 µM | > 100 µM | > 100 µM | > 100 µM | > 100 µM | > 100 µM | > 100 µM | > 100 µM
O=c1c2cc(I)ccc2nc(-c2cccs2)n1-c1ccc(O)cc1 | 26.1 µM | 46.7 µM | > 100 µM | 30.1 µM | 49.1 µM | 14.5 µM | 40.7 µM | 38.8 µM | 48.5 µM
CCOC(=O)c1cc2c3c(c(C(C)=O)c(O)c2[nH]1)N(CC(C)CC)CC3 (stereo not drawn) | > 100 µM | > 100 µM | > 100 µM | > 100 µM | > 100 µM | > 100 µM | > 100 µM | > 100 µM | > 100 µM
Cc1c2c(n(CCc3ccc(Cl)cc3)c1C)NC(c1ccccc1)C(C#N)S2(=O)=O (stereo not drawn) | > 100 µM | > 100 µM | 47.8 µM | > 100 µM | > 100 µM | > 100 µM | > 100 µM | > 100 µM | > 100 µM
CC1(C)CC(C)(C)C1=NNC(N)=O | > 100 µM | > 100 µM | > 100 µM | > 100 µM | > 100 µM | > 100 µM | > 100 µM | > 100 µM | > 100 µM
c1ccc2c(c1)CCc1c-2n(CCN2CCOCC2)c2ccccc12 | > 100 µM | > 100 µM | > 100 µM | 28.6 µM | > 100 µM | > 100 µM | > 100 µM | > 100 µM | > 100 µM
C/C(Nc1ccc(F)cc1)=C1/CCOC1=O | > 100 µM | > 100 µM | > 100 µM | > 100 µM | > 100 µM | > 100 µM | > 100 µM | > 100 µM | > 100 µM
C(CCCCc1nnc(N2CCCCC2)o1)CCCc1nnc(N2CCCCC2)o1 | > 100 µM | > 100 µM | > 100 µM | > 100 µM | > 100 µM | > 100 µM | > 100 µM | > 100 µM | > 100 µM
O=C(O)c1ccn(-c2cccc(-n3ccc(C(=O)O)n3)n2)n1 | > 100 µM | > 100 µM | > 100 µM | > 100 µM | > 100 µM | > 100 µM | > 100 µM | > 100 µM | > 100 µM
S=C1SCN(Cc2ccco2)CN1c1ccc(Br)cc1 | 26.9 µM | 45.7 µM | 15.9 µM | 23.7 µM | 37.5 µM | 36.2 µM | 66.4 µM | 72.2 µM | 57.9 µM
CC1(O)CC(=O)c2c(cc3ccc(-c4c5c(c(O)c6c(O)cccc46)C(=O)CC(C)(O)C5)c(O)c3c2O)C1 (stereo not drawn) | 4.08 µM | 3.43 µM | 11.9 µM | 1.12 µM | 12.9 µM | 2.34 µM | 13.1 µM | 4.37 µM | 1.74 µM
Cc1ccc2c(c1C)C(=O)/C(=C/c1ccccc1C(=O)O)C2 | > 100 µM | > 100 µM | > 100 µM | > 100 µM | > 100 µM | > 100 µM | > 100 µM | > 100 µM | > 100 µM
COC(=O)c1c(O)ccc2c1c1c(n2Cc2cccc(C)c2)C(=O)c2ccccc2C1=O | 24.2 µM | 24.2 µM | 35 µM | 26.8 µM | 20.1 µM | 28.2 µM | 22.2 µM | 27.9 µM | 24.4 µM
C=C(CO[Si](C)(C)C(C)(C)C)C(C)=O | 77.6 µM | > 69.7 µM | > 52.4 µM | 17.3 µM | 44.4 µM | > 62.2 µM | > 68.5 µM | > 100 µM | > 100 µM
COc1cc(/C=C2/C[C@H]3[C@@H]4CC=C5C[C@@H](OC(C)=O)CC[C@]5(C)[C@H]4CC[C@]3(C)NC2=O)cc(OC)c1OC | > 100 µM | 69.6 µM | > 100 µM | 59.4 µM | 62.3 µM | 37.5 µM | > 100 µM | 41.9 µM | 46.5 µM
CCCCCCCCCCCCCCCCCCNc1ccn(C2OC(COP(=O)(O)OCC3OC(n4cc(F)c(NCCCCCCCCCCCCCCCCCC)nc4=O)CC3O)C(O)C2O)c(=O)n1 (stereo not drawn) | > 100 µM | > 100 µM | > 100 µM | > 100 µM | > 100 µM | > 100 µM | > 100 µM | > 100 µM | > 100 µM
